The text below walks through data of EP0516186A2, “Nucleosides and nucleoside analogues, pharmaceutical composition and processes for the preparation of the compounds” (priority 1987, dated 1988).

Assay type in all cases: cell-based
Series [1] is described as follows: Cellular toxicity in F5000 cells (cell multiplication). The following applies: F5000 human embryo cells, number of cells after 48 hrs; 50 % inhibition of cell multiplication; read-out: TC₅₀(µM) F5000. As to the method: (§1) Test II. Cellular toxicity
(§2) F5000 cells, which are human embryo cells, 1x10⁵ cells per plate, are incubated in Eagle's minimal essential medium, supplemented with Earle's salts, non-essential amino acids, 10 % fetal calf serum, 10 mM hepes, 70 mg/l penicillin and 100 mg/l streptomycin, in absence or presence of test compounds. The number of cells per plate is determined after 48 hrs. Cells incubated in absence of test compounds underwent one cell division cycle. The results are given as TC₅₀, which is the concentration of a compound which gives 50 % inhibition of cell multiplication.

Series [2] can be described thus: Cellular toxicity in H9 cells (cell multiplication). The conditions noted are these: human, number of cells after 48 hrs, 50 % inhibition of cell multiplication, read-out: TC₅₀(µM) H9. On the procedure: as §1
H₉ cells, 2x10⁷ cells per plate, are incubated in RPMI-1640 medium containing 10 % fetal calf serum, 70 mg/l penicillin, 100 mg/l streptomycin and 10 mM hepes, in absence or precence of test compounds. The number of cells per plate is determined after 48 hrs. Cells incubated in absence of test compound then underwent two cell division cycles.
as §2

The subject of series [3] is HIV (HTLV-IIIB). Put plainly: Effect on HIV in H9 cells (frequency of HIV antigen containing cells, immunofluorescence). The conditions noted are these: Human immunodeficiency virus 1; H9 cells exposed to HIV (HTLV-IIIB), incubated 6 - 7 days; read-out: Concentration (µM) for 50 % inhibition (IC₅₀) of human immuno deficiency virus multiplication in cell culture. On the procedure:
Test I. Effect of compounds of the formula I on HIV in H9 cells
Materials and methods: HIV infection of H9 cells
H9 cells, 10⁵ cells per well on a 24 well plate, suspended in 2 ml RPMI-medium containing 10 % fetal calf serum, 100 µg/ml penicillin, 10 µg/ml streptomycin sulfate and 2 µg/ml polybrene are exposed to HIV (HTLV-IIIB) and different concentrations of the test compounds. The plates are incubated at 37°C in 5 % CO₂ for 6 - 7 days. The contents in each well is then homogenized with a pipette and transferred to a centrifuge tube. After centrifugation for 10 min at 1500 rpm the supernatent is removed and the cell pellet is analyzed by fixing in methanol on glass plates. Human HIV positive serum diluted 1:80 or 1:160 is added and incubated for 30 min at 37°. The plate is then washed with phosphate-buffered saline (PBS) containing Ca²⁺ and Mg²⁺. Sheep antihuman conjugate (FITC) is added and after a new incubation the plate is again washed with PBS. Contrast staining is done with Evans blue and after drying the frequency of HIV antigen containing cells is determined in a microscope.

As for `CCc1cn([C@@H]2C[C@H](F)[C@@H](CO)O2)c(=O)[nH]c1=O` [VSA 411, 1-(3-F-2,3-dideoxy-α-D-ribofuranosyl)-5-ethyluracil], the CC50 at 48 h was 500 µM in series [1] and 400 µM in series [2]. For the same molecule, the IC50 in series [3] worked out at 0.1 µM.
For the molecule `CCCc1cn([C@@H]2C[C@H](F)[C@@H](CO)O2)c(=O)[nH]c1=O` [VSA 409, 1-(3-F-2,3-dideoxy-α-D-ribofuranosyl)-5-propyluracil], the IC50 in series [3] amounted to 2.5 µM.
Consider `Cc1cn([C@@H]2C[C@H](F)[C@@H](CO)O2)c(=O)[nH]c1=O` [VSA 419, 1-(3-F-2,3-dideoxy-α-D-ribofuranosyl)thymine], for which, in series [1], the CC50 at 48 h turned out to be 250 µM.
On to `CCc1cn([C@@H]2C[C@H](O)[C@@H](CO)O2)c(=O)[nH]c1=O` [VIP 289, 1-(2-deoxy-α-D-ribofuranosyl)-5-ethyluracil], for which, in series [1], the CC50 at 48 h was 1000 µM. Further, in series [3], the IC50 turned out to be 10 µM.
